Earlier results in article PMC7179723, “Self-Assembly of Minimal Peptoid Sequences” (ACS Macro Letters, 2020).

Conditions: assembly requires dilution from an organic solution; literature statement
Text: Control of self-assembly using sequence-specific polymers such as peptides and their mimics is a powerful approach to generating functional nanomaterials. Very short self-assembling peptides and their mimics (e.g., ≤ 5 residues) are of special interest since they are more easily scalable and they lead to insight into assembly requirements.[1] Their discovery is nontrivial since assembly propensity (e.g., hydrophobic interactions and hydrogen bonding) and favorable solvent (water) interactions must be balanced among just a few residues.[1]−[3] […] Alternatively, lamellar nanostructures were observed when the dipeptoid was precipitated in water from an ACN solution.

diphenylalanine [FF]
solubility in water: not directly soluble in water
